Assay results published in patent US20140045824A1, “METHOD FOR PRODUCING COMPLEX CRYSTAL AND METHOD FOR SCREENING COMPLEX CRYSTAL” (priority 2011, published 2014).

Columns and labels:
Format in all cases: physicochemical
[1] = Cocrystal screening by heat melting 1-menthol (Example 1), powder X-ray diffraction and thermal analysis; parameters: key to Cocrystal formation, Example 1: A cocrystal was completely formed.; B: A mixture of a cocrystal and the host compound or guest compound was formed.; C: A cocrystal was not formed (a mixture of the host compound and the guest compound was formed); conditions: host theophylline; for Cocrystal formation, Example 1: equimolar guest, 1-menthol added, 4 hours at 80° C.
Procedure: Theophylline and a guest compound shown in Table 1 in an equimolar amount to theophylline were weighed and mixed using an agate mortar. […] Thereafter, the obtained mixed powder of theophylline, the guest compound, and 1-menthol was heated for 4 hours in an oven at 80° C., and the obtained solid was subjected to powder X-ray diffraction measurement and thermal analysis.

[2] = Cocrystal screening by slurry method (Comparative Examples 4-1 to 4-6), powder X-ray diffraction; parameters: key: A cocrystal was completely formed.; B: A mixture of a cocrystal and the host compound or guest compound was formed.; C: A cocrystal was not formed (a mixture of the host compound and the guest compound was formed); conditions: host carbamazepine; for Cocrystal formation, Comparative Example 4-6: slurry in acetone; for Cocrystal formation, Comparative Example 4-6 / Cocrystal formation, Comparative Example 4-2 / Cocrystal formation, Comparative Example 4-4 / Cocrystal formation, Comparative Example 4-1 / Cocrystal formation, Comparative Example 4-5 / Cocrystal formation, Comparative Example 4-3: room temperature 7 days; for Cocrystal formation, Comparative Example 4-2: slurry in ethanol; for Cocrystal formation, Comparative Example 4-4: slurry in toluene; for Cocrystal formation, Comparative Example 4-1: slurry in water; for Cocrystal formation, Comparative Example 4*: slurry summary: A if a cocrystal was formed in any one of Comparative Examples 4-1 to 4-6; for Cocrystal formation, Comparative Example 4-5: slurry in ethyl acetate; for Cocrystal formation, Comparative Example 4-3: slurry in tetrahydrofuran
Procedure: 3 mg (0.0127 mmoles) of carbamazepine and a guest compound shown in Table 4 in an equimolar amount (0.0127 mmoles) to carbamazepine were weighed and put into a glass container, to which was then added 60 μL of water. These were shaken at room temperature for 7 days, and the obtained residues were subjected to powder X-ray diffraction measurement. 3 mg (0.0127 mmoles) of carbamazepine and a guest compound shown in Table 4 in an equimolar amount (0.0127 mmoles) to carbamazepine were weighed and put into a glass container, to which was then added 60 μL of ethanol. These were shaken at room temperature for 7 days, and the obtained residues were subjected to powder X-ray diffraction measurement. 3 mg (0.0127 mmoles) of carbamazepine and a guest compound shown in Table 4 in an equimolar amount (0.0127 mmoles) to carbamazepine were weighed and put into a glass container, to which was then added 60 μL of tetrahydrofuran. These were shaken at room temperature for 7 days, and the obtained residues were subjected to powder X-ray diffraction measurement. 3 mg (0.0127 mmoles) of carbamazepine and a guest compound shown in Table 4 in an equimolar amount (0.0127 mmoles) to carbamazepine were weighed and put into a glass container, to which was then added 60 μL of toluene. These were shaken at room temperature for 7 days, and the obtained residues were subjected to powder X-ray diffraction measurement. 3 mg (0.0127 mmoles) of carbamazepine and a guest compound shown in Table 4 in an equimolar amount (0.0127 mmoles) to carbamazepine were weighed and put into a glass container, to which was then added 60 μL of ethyl acetate. These were shaken at room temperature for 7 days, and the obtained residues were subjected to powder X-ray diffraction measurement. 3 mg (0.0127 mmoles) of carbamazepine and a guest compound shown in Table 4 in an equimolar amount (0.0127 mmoles) to carbamazepine were weighed and put into a glass container, to which was then added 60 μL of acetone. These were shaken at room temperature for 7 days, and the obtained residues were subjected to powder X-ray diffraction measurement.

[3] = Cocrystal screening by heating method without menthol (Comparative Example 6); parameters: key: A cocrystal was completely formed.; B: A mixture of a cocrystal and the host compound or guest compound was formed.; C: A cocrystal was not formed (a mixture of the host compound and the guest compound was formed); conditions: host carbamazepine, equimolar guest, no menthol, 4 hours at 80° C.
Procedure: Carbamazepine and a guest compound shown in Table 4 in an equimolar amount to carbamazepine were weighed and mixed using an agate mortar. At that time, particles having a large size to an extent that they could be distinguished through visual inspection were grinded on the agate mortar. 10 mg of this mixed powder was weighed and put into a test tube and heated for 4 hours in an oven at 80° C., and the obtained solids were subjected to powder X-ray diffraction measurement and thermal analysis.

[4] = Cocrystal screening by heat melting 1-menthol (Example 2), powder X-ray diffraction and thermal analysis; parameters: key: A cocrystal was completely formed.; B: A mixture of a cocrystal and the host compound or guest compound was formed.; C: A cocrystal was not formed (a mixture of the host compound and the guest compound was formed); conditions: host carbamazepine, equimolar guest, 1-menthol added, 10 hours at 80° C.
Procedure: Carbamazepine and a guest compound shown in Table 4 in an equimolar amount to carbamazepine were weighed and mixed using an agate mortar. […] Thereafter, the obtained mixed powder of carbamazepine, the guest compound, and 1-menthol was heated for 10 hours in an oven at 80° C., and the obtained solids were subjected to powder X-ray diffraction measurement and thermal analysis.

[5] = Cocrystal screening by co-grinding method (Comparative Example 2); parameters: key: A cocrystal was completely formed.; B: A mixture of a cocrystal and the host compound or guest compound was formed.; C: A cocrystal was not formed (a mixture of the host compound and the guest compound was formed); conditions: host theophylline, equimolar guest, mixed/ground in agate mortar
Procedure: 3 mg (0.0167 mmoles) of theophylline and a guest compound shown in Table 1 in an equimolar amount (0.0167 mmoles) to theophylline were weighed and mixed using an agate mortar. At that time, particles having a large size to an extent that they could be distinguished through visual inspection were grinded on the agate mortar. The obtained solids were subjected to powder X-ray diffraction measurement and thermal analysis.

[6] = Cocrystal screening by mixing and grinding method (Comparative Example 5); parameters: key: A cocrystal was completely formed.; B: A mixture of a cocrystal and the host compound or guest compound was formed.; C: A cocrystal was not formed (a mixture of the host compound and the guest compound was formed); conditions: host carbamazepine, equimolar guest, mixed/ground in agate mortar
Source text: Carbamazepine and a guest compound shown in Table 4 in an equimolar amount to carbamazepine were weighed and mixed using an agate mortar. At that time, particles having a large size to an extent that they could be distinguished through visual inspection were grinded on the agate mortar. The obtained solids were subjected to powder X-ray diffraction measurement and thermal analysis.

[7] = Cocrystal screening by heating method without menthol (Comparative Example 3); parameters: key: A cocrystal was completely formed.; B: A mixture of a cocrystal and the host compound or guest compound was formed.; C: A cocrystal was not formed (a mixture of the host compound and the guest compound was formed); conditions: host theophylline, equimolar guest, no menthol, 4 hours at 80° C.
Procedure: 3 mg (0.0167 mmoles) of theophylline and a guest compound shown in Table 1 in an equimolar amount (0.0167 mmoles) to theophylline were weighed and mixed using an agate mortar. At that time, particles having a large size to an extent that they could be distinguished through visual inspection were grinded on the agate mortar. 10 mg of this mixed powder was weighed and put into a test tube, followed by heating for 4 hours in an oven at 80° C. The obtained solid was subjected to powder X-ray diffraction measurement and thermal analysis.

SMILES | Cocrystal formation, Example 1 [1] | Cocrystal formation, Comparative Example 4-6 [2] | Cocrystal formation, Comparative Example 4-2 [2] | Cocrystal formation, Comparative Example 4-4 [2] | Cocrystal formation, Comparative Example 4-1 [2] | Cocrystal formation, Comparative Example 4* [2] | Cocrystal formation, Comparative Example 6 [3] | Cocrystal formation, Example 2 [4] | Cocrystal formation, Comparative Example 2 [5] | Cocrystal formation, Comparative Example 5 [6] | Cocrystal formation, Comparative Example 3 [7] | Cocrystal formation, Comparative Example 4-5 [2] | Cocrystal formation, Comparative Example 4-3 [2] | Cocrystal with theophylline found, Example 1 ([1]; 1-menthol, 80° C.)
O=C(O)CC(O)(CC(=O)O)C(=O)O [Citric acid] | A | C | C | C | C | C | B | B | C | C | B | – | – | –
NC(=O)c1ccccc1 [Benzamide] | A | C | A | A | B | A | B | A | C | C | C | A | A | –
CC(C)C[C@H](N)C(=O)O [L-Leucine] | C | C | C | C | C | C | C | C | C | C | C | C | – | –
NC(=O)c1cccnc1 [Nicotinamide] | A | B | A | A | C | A | B | A | C | C | C | A | A | –
O=C(O)CCCC(=O)O [Glutaric acid] | A | C | C | C | C | C | B | A | C | C | B | C | – | –
N=C(N)NCCC[C@H](N)C(=O)O [L(+)-Arginine] | C | C | C | C | C | C | C | C | C | C | C | C | – | could not be found out
O=C(O)/C=C\C(=O)O [Maleic acid] | A | C | A | A | A | A | C | A | C | C | B | A | A | –
O=S(=O)(O)CCS(=O)(=O)O [Ethanedisulfonic acid] | A | A | A | A | C | A | B | A | A | C | A | A | A | –
